According to paper PMC10721898, “C5 methylation confers accessibility, stability and selectivity to picrotoxinin” (Nature Communications, 2023):
“Also recorded” adds a separate entry of the source.

Tests used:
[1] = Methanolysis with NaOMe in d4-methanol (1H NMR monitoring); format: physicochemical; details: for stability to catalytic NaOMe: 5 mol % NaOMe, 22 °C; for stability to catalytic NaOMe / competition experiment, 1:1 mixture of PXN and 5MePXN: d4-methanol; for concentration in competitive methanolysis: 5 mol% NaOMe in CD3OD; for competition experiment, 1:1 mixture of PXN and 5MePXN: 5 mol% NaOMe
From the text: Even addition of 2 equivalents NaOMe had no effect on 5MePXN (Fig. 3b and SI), far exceeding the tolerance of PXN. Thus, C5 methylation stabilized PXN against buffered water hydrolysis, acidic hydrolysis and alkaline methanolysis (Fig. 3a–d, see also ref. [21]). This profound stabilization highlighted the unique effects to reactivity imparted by C5 methylation. Furthermore, it opened a window into understanding differences in blood degradation of 5MePXN.
Supplementary Figure 4. Competitive methanolysis of PXN and 5MePXN under 5 mol% NaOMe in CD3OD.
(a) 0 min, (b) 10 min, (c) 30 min, (d) 60 min, (e) 100 min, (f) 140 min, (g) 280 min.
Supplementary Table 5. Concentration of each component in competitive methanolysis. […]
Supplementary Figure 5. Concentration of PXN, d5-33, d9-34 and 5MePXN vs. time (min) 3.4 Methanolysis of 5MePXN under different equivalent of NaOMe in CD3OD To a solution of 5MePXN (2.5 mg, 0.0082 mmol ) in CD 3OD (0.4 mL) in 5 mm NMR tube was added a solution of NaOMe in CD3OD (0.1, 0.2, 0.5, 0.8, 1.0, 1.5 and 2.0 equiv) at room temperature. The NMR tube was shaken bottom up 5 times to make solution homogenous, then measured by 1H NMR.

rat GABAA ion channel = details: preliminary screen; read-out: IC50, competition with [3H]TBOB for binding to rat cerebral cortex; cited from earlier work
[2] = reversible solvolysis; cited from earlier work

| SMILES | stability to catalytic NaOMe [1] | concentration in competitive methanolysis ([1]; 0 min) [µM] | concentration in competitive methanolysis ([1]; 5 min) [µM] | concentration in competitive methanolysis ([1]; 10 min) [µM] | concentration in competitive methanolysis ([1]; 15 min) [µM] | concentration in competitive methanolysis ([1]; 20 min) [µM] | concentration in competitive methanolysis ([1]; 25 min) [µM] | concentration in competitive methanolysis ([1]; 30 min) [µM] | concentration in competitive methanolysis ([1]; 35 min) [µM] | concentration in competitive methanolysis ([1]; 40 min) [µM] | concentration in competitive methanolysis ([1]; 45 min) [µM] | concentration in competitive methanolysis ([1]; 50 min) [µM] | concentration in competitive methanolysis ([1]; 55 min) [µM] | concentration in competitive methanolysis ([1]; 60 min) [µM] | concentration in competitive methanolysis ([1]; 65 min) [µM] | concentration in competitive methanolysis ([1]; 70 min) [µM] | concentration in competitive methanolysis ([1]; 75 min) [µM] | concentration in competitive methanolysis ([1]; 80 min) [µM] | concentration in competitive methanolysis ([1]; 85 min) [µM] | concentration in competitive methanolysis ([1]; 90 min) [µM] | further results |
| --- | --- | --- | --- | --- | --- | --- | --- | --- | --- | --- | --- | --- | --- | --- | --- | --- | --- | --- | --- | --- | --- |
| C=C(C)C1C2OC(=O)C1(C)C1(O)CC3OC34C(=O)OC2C41C (centres unmarked) [5MePXN, 5-methylpicrotoxinin] | did not observe any consumption | 3268 | 3268 | 3268 | 3268 | 3268 | 3268 | 3268 | 3268 | 3268 | 3268 | 3268 | 3268 | 3268 | 3268 | 3268 | 3268 | 3268 | 3268 | 3268 | concentration in competitive methanolysis ([1]; 95 min): 3268 µM; concentration in competitive methanolysis ([1]; 100 min): 3268 µM; concentration in competitive methanolysis ([1]; 110 min): 3268 µM; concentration in competitive methanolysis ([1]; 120 min): 3268 µM; concentration in competitive methanolysis ([1]; 130 min): 3268 µM; concentration in competitive methanolysis ([1]; 140 min): 3268 µM; concentration in competitive methanolysis ([1]; 280 min): 3268 µM; competition experiment, 1:1 mixture of PXN and 5MePXN [1]: completely persisted; stability to excess NaOMe ([1]; 200 mol % (2 equivalents) NaOMe): had no effect; also recorded: stable; IC50 (rat GABAA ion channel): 2.1 ± 0.3 µM |
| C=C(C)[C@@H]1[C@H]2OC(=O)[C@@H]1[C@]1(O)C[C@H]3O[C@]34C(=O)O[C@H]2[C@]14C [PXN, picrotoxinin] | equimolar mixture of d5-methyl picrotoxate (d5-33) and d9-dimethyl picrotoxinin dicarboxylate (d9-34) in 6 h; also recorded: unstable | 3424.6 | 2952 | 2500 | 2181 | 1935 | 1679 | 1564 | 1495 | 1464 | 1375 | 1307 | 1223 | 1119 | 1044 | 962 | 925.6 | 856.1 | 800.1 | 773 | concentration in competitive methanolysis ([1]; 95 min): 730.2 µM; concentration in competitive methanolysis ([1]; 100 min): 704.7 µM; concentration in competitive methanolysis ([1]; 110 min): 611.5 µM; concentration in competitive methanolysis ([1]; 120 min): 560.5 µM; concentration in competitive methanolysis ([1]; 130 min): 515 µM; concentration in competitive methanolysis ([1]; 140 min): 466.6 µM; concentration in competitive methanolysis ([1]; 280 min): 215.8 µM; competition experiment, 1:1 mixture of PXN and 5MePXN [1]: completely degraded; half-life in mouse plasma [2]: ~ 1 h |
